Laboratory results from ChEMBL document CHEMBL6178013, “Ferroptosis of Cancer Cells via Tubulin Degradation and Mitochondrial Dysfunction: A Novel Mechanism of Anticancer Effect for Small-Molecule Anion Transporters” (J Med Chem, 2025).
Active and inactive are the calls of the source. No cut-off for these calls is given here.

What was measured:
HeLa [1] = experiment: Induction of mitochondrial membrane permeability in human HeLa cells assessed as red fluorescence at 1 uM incubated for 24 hrs by JC-1 staining based analysis (reference value: 98.5 %); type: functional
HeLa [2] = experiment: Cytotoxicity against human HeLa cells assessed as decrease in cell viability cultured in chloride-free extracellular medium at 0.05 to 5 uM incubated for 12 hrs; type: functional, cell-based; settings: dose 0.05-5 µM
Chloride [3] = experiment: Binding affinity to chloride anions assessed as chloride efflux in egg-yolk L-alpha-phosphatidylcholine liposome model measured per lipid in presence of intravesicular NaCl/extravesicular NaNO3 by chloride ion selective electrode technique
Liposome = experiment: Disruption of egg-yolk L-alpha-phosphatidylcholine liposome model membrane assessed as calcein leakage by fluorescence based assay; type: subcellular
Chloride [4] = experiment: Binding affinity to chloride anions in human HeLa cells assessed as decrease in orange fluorescence in cytoplasm at 5 uM incubated for 6 hrs by AO staining based analysis relative to control; type: cell-based; parameters: scale not given: the % may be the effect or the level left
[5] = Cmax in male CD-1 mouse at 1 mg/kg, ip measured for 0.083 to 48 hrs by HPLC/MS/MS analysis; type: ADME, organism-based; settings: in vivo, time 0.083-48 hrs
[6] = Half life in male CD-1 mouse at 1 mg/kg, ip measured for 0.083 to 48 hrs by HPLC/MS/MS analysis; type: ADME, organism-based; settings: in vivo, time 0.083-48 hrs
Chloride [7] = experiment: Binding affinity to chloride anions in human HeLa cells assessed as increase in chloride influx at 1 uM measured after 30 to 60 mins by flow cytometry; type: cell-based; settings: time 30-60 min
HeLa [8] = experiment: Antitumor activity against human HeLa cells xenografted in male Balb/C nude mouse assessed as average tumor size at 20 mg/kg, ip administered on every 2 days measured after 18 days (reference value: 1995.1 mm3); type: functional; settings: time 18 day
HeLa [9] = experiment: Cytotoxicity against human HeLa cells assessed as decrease in cell viability at 0.01 to 10 uM pretreated with Z-VAD-FMK/Fer-1 followed by compound addition by MTT assay; type: functional, cell-based; settings: dose 0.01-10 µM
[10] = MRT (0 to infinity) in male CD-1 mouse at 1 mg/kg, iv measured for 0.083 to 48 hrs by HPLC/MS/MS analysis; type: ADME, organism-based; settings: in vivo, time 0.083-48 hrs
[11] = target: T1, Tubulin beta (Homo sapiens) (UniProt P68371+Q9H4B7+Q13509+P04350+Q3ZCM7+P07437+Q13885+Q9BVA1+Q9BUF5+A6NNZ2); experiment: Induction of beta-tubulin degradation in human HeLa cells incubated for 48 hrs by immunoblotting analysis; type: cell-based; settings: dose 0.1-1 µM
HeLa [12] = experiment: Induction of ferroptosis in human HeLa cells assessed as increase in Bad level at 0.1 to 1 uM incubated for 24 hrs by immunoblotting analysis; type: functional, cell-based; settings: dose 0.1-1 µM
HeLa [13] = experiment: Induction of mitochondrial membrane permeability in human HeLa cells assessed as red fluorescence at 0.5 uM incubated for 24 hrs by JC-1 staining based analysis (reference value: 98.5 %); type: functional
HeLa [14] = experiment: Cytotoxicity against human HeLa cells assessed as decrease in cell viability cultured in chloride-containing extracellular medium at 0.05 to 5 uM incubated for 12 hrs; type: functional, cell-based; settings: dose 0.05-5 µM
[15] = Toxicity in male Balb/C nude mouse xenografted with human HeLa cells assessed as abnormalities in brain at 10 to 20 mg/kg, ip administered on every 2 days measured after 18 days by H and E staining based analysis; type: organism-based; settings: in vivo, 432 h, dose 10-20 mg/kg, time 18 day
HeLa [16] = experiment: Induction of beta III-tubulin degradation in human HeLa cells up to 10 uM preincubated with MG132 followed by compound addition measured after 24 hrs by immunoblotting analysis; type: cell-based
[17] = AUC (0 to infinity) in male CD-1 mouse at 1 mg/kg, iv measured for 0.083 to 48 hrs by HPLC/MS/MS analysis; type: ADME, organism-based; settings: in vivo, time 0.083-48 hrs
HeLa [18] = experiment: Induction of ferroptosis in human HeLa cells assessed as decrease in Bcl-2 level at 0.1 to 1 uM incubated for 24 hrs by immunoblotting analysis; type: functional, cell-based; settings: dose 0.1-1 µM
[19] = MRT (0 to t) in male CD-1 mouse at 1 mg/kg, iv measured for 0.083 to 48 hrs by HPLC/MS/MS analysis; type: ADME, organism-based; settings: in vivo, time 0.083-48 hrs
HeLa [20] = experiment: Induction of ferroptosis in human HeLa cells assessed as increase in caspase-3 activation at 0.1 to 1 uM incubated for 24 hrs by immunoblotting analysis; type: functional, cell-based; settings: dose 0.1-1 µM
[21] = target: Tubulin alpha (Homo sapiens) (UniProt P0DPH7+P68366+Q71U36+P68363+Q9BQE3+Q6PEY2+A6NHL2+Q9NY65); experiment: Induction of alpha-tubulin degradation in human HeLa cells at 1 uM preincubated with MG132 followed by compound addition measured after 24 hrs by immunoblotting analysis; type: cell-based
HeLa [22] = experiment: Antitumor activity against human HeLa cells xenografted in male Balb/C nude mouse assessed as nuclear fragmentation at 10 to 20 mg/kg, ip administered on every 2 days measured after 18 days by H and E staining based analysis; type: functional, organism-based; settings: dose 10-20 mg/kg, time 18.0 day
HeLa [23] = experiment: Induction of mitochondrial membrane permeability in human HeLa cells assessed as green fluorescence at 0.5 uM incubated for 24 hrs by JC-1 staining based analysis (reference value: 1.5 %); type: functional
Chloride [24] = experiment: Binding affinity to chloride anions assessed as chloride efflux in egg-yolk L-alpha-phosphatidylcholine liposome model harboring intravesicular KCl/extravesicular NaNO3
[25] = Drug concentration in brain of C57BL/6 mouse at 5 mg/kg, iv measured after 4 hrs by HPLC/MS/MS analysis; type: ADME, organism-based; settings: read-out: Ct
HeLa [26] = experiment: Induction of ferroptosis in human HeLa cells assessed as increase in Bax level at 0.1 to 1 uM incubated for 24 hrs by immunoblotting analysis; type: functional, cell-based; settings: dose 0.1-1 µM
Chloride [27] = experiment: Binding affinity to chloride anions assessed as chloride efflux in egg-yolk L-alpha-phosphatidylcholine liposome model harboring intravesicular RbCl/extravesicular NaNO3
Chloride [28] = experiment: Binding affinity to chloride anions in human HeLa cells assessed as increase in chloride influx at 1 uM measured after 30 to 60 mins by inverted fluorescence microscopy; type: cell-based; settings: time 30-60 min
HeLa [29] = experiment: Antitumor activity against human HeLa cells xenografted in male Balb/C nude mouse assessed as reduction in tumor weight at 20 mg/kg, ip administered on every 2 days measured after 18 days relative to control; type: functional; parameters: scale not given: the % may be the effect or the level left; settings: time 18 day
HeLa [30] = experiment: Cytotoxicity against human HeLa cells assessed as decrease in cell viability at 0.01 to 10 uM pretreated with 3-MA followed by compound addition by MTT assay; type: functional, cell-based; settings: dose 0.01-10 µM
HeLa [31] = experiment: Induction of cell cycle arrest in human HeLa cells assessed as accumulation of cells at S phase at 0.1 uM incubated for 24 hrs by PI staining based flow cytometry relative to control; type: functional
HeLa [32] = experiment: Induction of lipid peroxidation in human HeLa cells by flow cytometry; type: functional, cell-based; settings: dose 0.1-1 µM
[33] = target: T1, Tubulin beta (Homo sapiens); experiment: Induction of beta-tubulin degradation in human HeLa cells at 1 uM preincubated with MG132 followed by compound addition measured after 24 hrs by immunoblotting analysis; type: cell-based
HeLa [34] = experiment: Antitumor activity against human HeLa cells xenografted in male Balb/C nude mouse assessed as cell death at 10 to 20 mg/kg, ip administered on every 2 days measured after 18 days by TUNEL immunofluorescence analysis; type: functional, organism-based; settings: dose 10-20 mg/kg, time 18.0 day

EC50 (Chloride [3]): 0.64 mol% | Activity (Liposome): inactive | Cmax [5]: 270 ng/mL | half-life [6]: 19.9 h | MRT inf [10]: 3.14 h | Activity [11]: Dose-dependent-effect | AUC(0-inf) [17]: 17800 ng·h/mL | MRT last [19]: 2.64 h | Activity [21]: inactive | Activity (Chloride [24]): Active | concentration at 4 h [25]: 1300 nM | Activity (Chloride [27]): Active | Activity [33]: inactive
Compound: Fc1cc(-c2nc3c(C(F)(F)F)cc(C(F)(F)F)cc3[nH]2)cc(-c2nc3c(C(F)(F)F)cc(C(F)(F)F)cc3[nH]2)c1
Activity (HeLa [1]): 33.2% | Activity (HeLa [2]): inactive | Activity (Chloride [4]): 100% | Activity (Chloride [7]): Active | Activity (HeLa [8]): 626.1 mm3 | Activity (HeLa [9]): Not active; Z-Vad-Fmk/Fer-1 Rescued Cells In Dose-Dependent Manner | Activity (HeLa [12]): Active | Activity (HeLa [13]): 55.1% | Activity (HeLa [14]): Active | Activity [15]: Non-toxic | Activity (HeLa [16]): inactive | Activity (HeLa [18]): Active | Activity (HeLa [20]): Active | Activity (HeLa [22]): Active | Activity (HeLa [23]): 44.9% | Activity (HeLa [26]): Active | Activity (Chloride [28]): Active | Activity (HeLa [29]): 69% | Activity (HeLa [30]): Active | Activity (HeLa [31]): 22% | Activity (HeLa [32]): Dose-dependent-effect | Activity (HeLa [34]): Active
